Among the data in patent publication US11066369B2, “N-(pyridin-2-yl)pyridine-sulfonamide derivatives and their use in the treatment of disease” (Novartis AG, priority 2016, dated 2021) are Emax and EC50 values, retold here.

For the assay, the target named is T1, horseradish peroxidase (HRP) tagged delF508-CFTR (Homo sapiens, UniProt P13569, DEL508-508).
T1 construct: expressed in transfected cells
In words: Measurement of delF508-CFTR-HRP surface expression in CFBE41o- cells.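 As to DelF508-CFTR-HRP Amax %: percent efficacy relative to reference corrector lumacaftor.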 The assay is classed as cell-based. The conditions noted are these: CFBE41o- cells; for Emax: read-out: DelF508-CFTR-HRP Amax %; for EC50: read-out: DelF508-CFTR-HRP EC50. In short, it runs like this: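 Surface-trafficked delF508-CFTR detected via extracellular HRP tag, read as luminescence from a membrane-impermeant substrate in CFBE41o- cells. Cells pre-induced 48h with 500 ng/mL doxycycline, then exposed 24h at 37° C to a 10-point, 3-fold dilution series from 10 μM (DMSO ≤0.5%). Triplicate dose-responses fitted logistically for EC50 after per-plate normalization; fold change versus reference compound.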

[1] abbreviates: delF508-CFTR-HRP surface expression.
[2] abbreviates: mean of at least two replicates.

Each structure is given as a SMILES string. Counter-ions that a name gives are not always drawn. Like-named read-outs stand apart in the source and are kept apart here.

T1 sequence (P13569 with tags, fused parts or gaps DEL508-508): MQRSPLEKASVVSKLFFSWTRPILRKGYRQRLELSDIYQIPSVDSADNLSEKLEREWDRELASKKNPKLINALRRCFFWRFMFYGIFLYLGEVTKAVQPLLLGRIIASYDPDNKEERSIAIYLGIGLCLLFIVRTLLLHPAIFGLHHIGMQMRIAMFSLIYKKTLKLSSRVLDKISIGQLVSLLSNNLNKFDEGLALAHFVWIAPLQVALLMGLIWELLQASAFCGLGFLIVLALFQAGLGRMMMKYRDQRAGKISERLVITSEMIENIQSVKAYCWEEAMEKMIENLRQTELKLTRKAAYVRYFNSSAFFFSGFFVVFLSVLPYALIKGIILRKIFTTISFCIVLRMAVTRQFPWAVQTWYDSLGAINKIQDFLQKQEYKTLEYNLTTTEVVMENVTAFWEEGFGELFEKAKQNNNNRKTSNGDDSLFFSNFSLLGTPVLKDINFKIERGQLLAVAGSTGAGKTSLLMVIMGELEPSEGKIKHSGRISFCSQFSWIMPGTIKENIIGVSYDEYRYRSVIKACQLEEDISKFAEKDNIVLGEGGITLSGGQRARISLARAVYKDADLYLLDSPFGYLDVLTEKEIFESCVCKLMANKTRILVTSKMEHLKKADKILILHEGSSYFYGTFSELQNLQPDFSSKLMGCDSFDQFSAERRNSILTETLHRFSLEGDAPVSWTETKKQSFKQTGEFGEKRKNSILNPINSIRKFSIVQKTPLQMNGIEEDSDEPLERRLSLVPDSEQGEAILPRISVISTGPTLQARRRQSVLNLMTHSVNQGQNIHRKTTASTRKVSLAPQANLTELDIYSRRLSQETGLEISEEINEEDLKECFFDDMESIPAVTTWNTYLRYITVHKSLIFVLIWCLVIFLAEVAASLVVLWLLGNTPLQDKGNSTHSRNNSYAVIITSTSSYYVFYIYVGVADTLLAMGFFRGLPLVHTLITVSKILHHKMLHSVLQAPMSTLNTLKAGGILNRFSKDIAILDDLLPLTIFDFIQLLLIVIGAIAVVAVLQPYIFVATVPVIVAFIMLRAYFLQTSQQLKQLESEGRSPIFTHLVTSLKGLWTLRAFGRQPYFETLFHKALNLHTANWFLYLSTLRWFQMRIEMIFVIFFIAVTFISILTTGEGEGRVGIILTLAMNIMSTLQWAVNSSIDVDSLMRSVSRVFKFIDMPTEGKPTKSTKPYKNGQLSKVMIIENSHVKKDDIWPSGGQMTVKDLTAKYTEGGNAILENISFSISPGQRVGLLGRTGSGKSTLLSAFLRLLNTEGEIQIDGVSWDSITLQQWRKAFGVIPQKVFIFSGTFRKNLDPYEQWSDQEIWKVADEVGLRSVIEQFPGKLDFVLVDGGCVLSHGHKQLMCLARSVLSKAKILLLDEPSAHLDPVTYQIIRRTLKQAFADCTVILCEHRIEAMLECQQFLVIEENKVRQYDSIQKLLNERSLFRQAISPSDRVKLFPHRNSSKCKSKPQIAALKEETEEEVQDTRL

In general, EC50 refers to the concentration at which the effect is half-maximal. For the compound `Cc1ccc(C(F)(F)F)cc1-c1nc(NS(=O)(=O)c2ccnc(N)c2)ccc1Cl` [Example 49, 2-amino-N-(5-chloro-6-(2-methyl-5-(trifluoromethyl)phenyl)pyridin-2-yl)pyridine-4-sulfonamide], under setting [1], the Emax came out at 333% and the EC50 stood at 3050 nM. Turning to `Cc1ccccc1-c1nc(NS(=O)(=O)c2cccc(N[C@@H]3C[C@@]4(C(=O)O)CC[C@@H]3O4)n2)ccc1C(F)(F)F` (racemic) [Example 395, rac-(1RS,3RS,4SR)-3-((6-(N-(6-(o-tolyl)-5-(trifluoromethyl)pyridin-2-yl)sulfamoyl)pyridin-2-yl)amino)-7-oxabicyclo[2.2.1]heptane-1-carboxylic Acid], the EC50 under setting [2] was 3650 nM. In addition, under “surface expression Amax”, the Emax turned out to be 64.3%.

For the compound `[2H]C([2H])([2H])c1ccccc1-c1nc(NS(=O)(=O)c2ccnc(N)c2)ccc1Cl` [Example 26, 2-amino-N-(5-chloro-6-(2-(methyl-d3)phenyl)pyridin-2-yl)pyridine-4-sulfonamide], under setting [1], the Emax came to 450% and the EC50 turned out to be 2200 nM.

Regarding `O=S(=O)(Nc1ccc(Cl)c(-c2ccccc2C(F)(F)F)n1)c1cccc(N[C@@H]2COC[C@H]2O)n1` [Example 126, N-(5-chloro-6-(2-(trifluoromethyl)phenyl)pyridin-2-yl)-6-(((3R,4S)-4-hydroxytetrahydrofuran-3-yl)amino)pyridine-2-sulfonamide], under setting [1], the Emax is 235% and the EC50 was determined as 2180 nM. Taken in the same sequence, the figures for `Cc1cccc(C)c1-c1nc(NS(=O)(=O)c2cccc(N3CCC(N)(C(=O)O)CC3)n2)ccc1Cl` [Example 269, 4-amino-1-(6-{[5-chloro-6-(2,6-dimethylphenyl)pyridin-2-yl]sulfamoyl}pyridin-2-yl)piperidine-4-carboxylic Acid Hydrochloride] were 105% and 4000 nM. Taken in the same sequence, the figures for `Cc1ccccc1-c1nc(NS(=O)(=O)c2nc(N)ccc2F)ccc1Cl` [Example 33, 6-amino-N-(5-chloro-6-(o-tolyl)pyridin-2-yl)-3-fluoropyridine-2-sulfonamide] were 404% and 2200 nM.

`Cc1c(C#N)cccc1-c1nc(NS(=O)(=O)c2ccnc(N)c2)ccc1Cl` [Example 87, 2-amino-N-(5-chloro-6-(3-cyano-2-methylphenyl)pyridin-2-yl)pyridine-4-sulfonamide]: under setting [1], the Emax was 93.8% and the EC50 came out at 4100 nM. Regarding `CCC[C@@H]1CCN(c2cccc(S(=O)(=O)Nc3ccc(Cl)c(-c4cccnc4C(C)C)n3)n2)[C@H]2C[C@H](C(=O)O)[C@@H]12` (racemic) [Example 434, rac-(1SR,5RS,6RS,7SR)-2-(6-(N-(3-chloro-2′-isopropyl-[2,3′-bipyridin]-6-yl)sulfamoyl)pyridin-2-yl)-5-propyl-2-azabicyclo[4.2.0]octane-7-carboxylic Acid], under setting [2], the EC50 was 2230 nM. In addition, the Emax (surface expression Amax) worked out at 734%.

`CC(C)COc1ccccc1-c1nc(NS(=O)(=O)c2cccc(N3CCC[C@@](C)(C(=O)O)C3)n2)ccc1C(F)(F)F` [Example 396, (R)-1-(6-(N-(6-(2-isobutoxyphenyl)-5-(trifluoromethyl)pyridin-2-yl)sulfamoyl)pyridin-2-yl)-3-methylpiperidine-3-carboxylic Acid]: under setting [2], the EC50 was 845 nM. As to `Cc1cc(C)c(-c2nc(NS(=O)(=O)c3cccc(N)n3)ccc2Cl)c(C)c1` [Example 32, 6-amino-N-(5-chloro-6-mesitylpyridin-2-yl)pyridine-2-sulfonamide], under setting [1], the Emax stood at 412% and the EC50 is 1640 nM. On to `CCOC(=O)C1(C)CCN(c2cccc(S(=O)(=O)Nc3ccc(C(F)(F)F)c(-c4c(C)cccc4C)n3)n2)CC1` [Example 266, ethyl 1-(6-{[6-(2,6-dimethylphenyl)-5-(trifluoromethyl)pyridin-2-yl]sulfamoyl}pyridin-2-yl)-4-methylpiperidine-4-carboxylate], for which the EC50 under setting [1] came to 1280 nM.

For `Nc1ccc(S(=O)(=O)Nc2ccc(Cl)c(-c3ccccc3C3CC3)n2)cn1` [Example 54, 6-amino-N-(5-chloro-6-(2-cyclopropylphenyl)pyridin-2-yl)pyridine-3-sulfonamide], under setting [1], the Emax stood at 305% and the EC50 is 2350 nM. Regarding `CCC1(C(=O)O)CCCN(c2cccc(S(=O)(=O)Nc3ccc(Cl)c(-c4c(C)cccc4C)n3)n2)C1` (stereo not drawn) [Example 453, 1-(6-(N-(5-chloro-6-(2,6-dimethylphenyl)pyridin-2-yl)sulfamoyl)pyridin-2-yl)-3-ethylpiperidine-3-carboxylic Acid], the EC50 under setting [2] worked out at 1590 nM. On to `Cc1ccccc1-c1nc(NS(=O)(=O)c2cccc(N3CCO[C@@H](C(=O)O)C3)n2)ccc1C(F)(F)F` [Example 339, (2R)-4-(6-{[6-(2-methylphenyl)-5-(trifluoromethyl)pyridin-2-yl]sulfamoyl}pyridin-2-yl)morpholine-2-carboxylic Acid], for which, under setting [1], the Emax stood at 122% and the EC50 is 2310 nM. Taken in the same sequence, the figures for `Cc1ccccc1-c1nc(NS(=O)(=O)c2cccc(N)n2)cc(C(F)(F)F)c1Cl` [Example 22, 6-amino-N-(5-chloro-6-(o-tolyl)-4-(trifluoromethyl)pyridin-2-yl)pyridine-2-sulfonamide] were 490% and 1620 nM.

On to `Cc1ccc(F)cc1-c1nc(NS(=O)(=O)c2cccc(N3CCN4CC[C@H]3C4)n2)ccc1C(F)(F)F` [Example 202, 6-((5S)-1,4-diazabicyclo[3.2.1]octan-4-yl)-N-(6-(5-fluoro-2-methylphenyl)-5-(trifluoromethyl)pyridin-2-yl)pyridine-2-sulfonamide], for which, under setting [1], the Emax worked out at 159% and the EC50 was determined as 3930 nM. As to `Nc1cccc(S(=O)(=O)Nc2ccc(Cl)c(-c3ccccc3Cl)n2)n1` [Example 24, 6-amino-N-(5-chloro-6-(2-chlorophenyl)pyridin-2-yl)pyridine-2-sulfonamide], under setting [1], the Emax amounted to 485% and the EC50 was 1460 nM. Taken in the same sequence, the figures for `Cc1ccccc1-c1nc(NS(=O)(=O)c2cccc(N3CCN[C@@H](C(=O)O)C3)n2)ccc1C(F)(F)F` [Example 341, (2R)-4-(6-{[6-(2-methylphenyl)-5-(trifluoromethyl)pyridin-2-yl]sulfamoyl}pyridin-2-yl)piperazine-2-carboxylic Acid] were 89.2% and 3030 nM.

For the compound `Cc1ccccc1-c1nc(NS(=O)(=O)c2cccc(NC3CCC(C(=O)O)CC3)n2)ccc1C(F)(F)F` (stereo not drawn) [Example 372, 4-((6-(N-(6-(o-tolyl)-5-(trifluoromethyl)pyridin-2-yl)sulfamoyl)pyridin-2-yl)amino)cyclohexanecarboxylic Acid], under setting [1], the Emax is 554% and the EC50 turned out to be 2250 nM. Consider `Cc1ccccc1-c1nc(NS(=O)(=O)c2cccc(N3CCC34CN(C(=O)OC(C)(C)C)C4)n2)ccc1C(F)(F)F` [Example 301, tert-butyl 1-(6-(N-(6-(o-tolyl)-5-(trifluoromethyl)pyridin-2-yl)sulfamoyl)pyridin-2-yl)-1,6-diazaspiro[3.3]heptane-6-carboxylate], for which, under setting [1], the Emax turned out to be 546% and the EC50 was determined as 670 nM.

On to `O=S(=O)(Nc1ccc(Cl)c(-c2ccc(F)cc2Cl)n1)c1cccc(N2CCNCC2)n1` [Example 157, N-(5-chloro-6-(2-chloro-4-fluorophenyl)pyridin-2-yl)-6-(piperazin-1-yl)pyridine-2-sulfonamide], for which, under setting [1], the Emax turned out to be 180% and the EC50 came to 4280 nM.
